The source of these data is ChEMBL document CHEMBL1130660, “Design and synthesis of a tetrahydropyran-based inhibitor of mammalian ribonucleotide reductase” (Bioorg Med Chem Lett, 1998).

Common to all, as to assay type: protein-complex assay
Assay [1] has as its target T1, Ribonucleoside-diphosphate reductase RR1 (Homo sapiens) (UniProt P23921+Q7LG56+P31350). Kind of assay: Mammalian ribonucleotide reductase (mRR) inhibitory activity at a dose of 0 uM.
Assay [2] addresses T1, Ribonucleoside-diphosphate reductase RR1 (Homo sapiens). Kind of assay: Mammalian ribonucleotide reductase (mRR) inhibitory activity at a dose of 100 uM.
For assay [3] the target is unchanged. Kind of assay: Mammalian ribonucleotide reductase (mRR) inhibitory activity at a dose of 1000 uM.
Assay [4] has the same target. Nature of the assay: Mammalian ribonucleotide reductase (mRR) inhibitory activity at a dose of 30 uM.
Assay [5] shares this target. Nature of the assay: Mammalian ribonucleotide reductase (mRR) inhibitory activity at a dose of 500 uM.
Assay [6] has the same target. Nature of the assay: Mammalian ribonucleotide reductase (mRR) inhibitory activity at a dose of 300 uM.

Turning to `CC(=O)N[C@@H](Cc1ccccc1)C(=O)NC[C@@H]1O[C@H]([C@@H](C)C(=O)N[C@@H](CC(=O)O)C(=O)N[C@@H](Cc2ccccc2)C(=O)O)[C@@H](OCC(=O)O)C[C@H]1OCC(C)C`, the Residual RR activity in assay [1] worked out at 100%; in assay [2], 73%; in assay [3], 32%; in assay [4], 86%; in assay [5] it was 48%; in assay [6] it was 64%.
